Test results reported in article PMC11801715, “Activating PKC-ε induces HIV expression with improved tolerability” (PLOS Pathogens, 2025).

What was measured:
[1] = system: cellular p24 in CD4+ T cells; assay: Ex vivo HIV-Flow assay in CD4+ T cells; assay type: cell-based, HIV-1; details: 500 nM in HIV-Flow, 72 hours
Experimental: Isolated CD4^+ T cells from ART-suppressed people with HIV were cultured in RPMI medium containing 10% FBS, 100 nM efavirenz, and 1 μM tenofovir alafenamide at 2 million cells per mL. These cells were subsequently stimulated with DMSO (vehicle control), 500 nM PKC agonist C-233, or 162 nM PMA and 1 µg/mL ionomycin. The cells were cultured at 37°C, 5% CO2 for 3 days. After 3 days, the cells were washed with PBS, stained with Live/Dead Fixable Aqua for 25 minutes at 4°C, followed by 2% FBS in PBS wash. Cells were then fixed and permeabilized in FoxP3 Fix/Perm buffer (E-Bioscience, catalog 005523) for 45 minutes at 4°C, followed by FoxP3 Perm buffer wash. The samples were stained with 2 different anti-p24 antibodies, (KC57-PE/ Beckman Coulter, 6604667, and a28B7-APC Medimabs, MM-0289-APC) diluted 1:1000 in FoxP3 Perm buffer for 45 minutes at 4°C, washed with FoxP3 Perm buffer, and resuspended in PBS. The samples were run on the BD LSR Fortessa II flow cytometer. The data were analyzed using FlowJo version 10.7.1.
Supplementary file ppat.1012874.s012.png: S9 Fig C-233 induces HIV activation in CD4^+ T cells from ART-suppressed people with HIV. […]

PKC-θ = PKC-θ (Homo sapiens, UniProt Q04759); assay: Cell fractionation and western blotting in CD4+ T cells; assay type: cell-based; details: 1 hour
Chain of PKC-θ (Q04759 whole entry): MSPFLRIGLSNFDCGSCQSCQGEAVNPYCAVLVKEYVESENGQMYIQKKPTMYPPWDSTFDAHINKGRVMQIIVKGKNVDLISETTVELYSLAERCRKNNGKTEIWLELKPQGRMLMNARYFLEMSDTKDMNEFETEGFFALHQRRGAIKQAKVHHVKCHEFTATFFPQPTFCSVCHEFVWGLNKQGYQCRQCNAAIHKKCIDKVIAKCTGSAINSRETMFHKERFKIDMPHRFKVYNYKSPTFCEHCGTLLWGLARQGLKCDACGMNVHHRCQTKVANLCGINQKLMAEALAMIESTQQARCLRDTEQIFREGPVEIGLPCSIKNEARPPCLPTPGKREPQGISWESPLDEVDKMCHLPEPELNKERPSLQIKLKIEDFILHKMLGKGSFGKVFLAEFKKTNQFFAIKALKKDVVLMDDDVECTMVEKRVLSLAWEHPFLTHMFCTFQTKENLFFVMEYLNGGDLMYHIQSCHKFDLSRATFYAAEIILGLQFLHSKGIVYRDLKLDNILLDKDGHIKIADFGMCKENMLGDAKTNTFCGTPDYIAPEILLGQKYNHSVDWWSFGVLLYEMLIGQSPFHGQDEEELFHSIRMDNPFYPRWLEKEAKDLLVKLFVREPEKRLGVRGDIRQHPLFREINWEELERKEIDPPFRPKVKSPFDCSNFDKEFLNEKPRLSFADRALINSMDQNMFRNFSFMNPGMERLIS
Experimental: (§1) CD4^+ T cells treated with C-232A for 1 hour in a concentration-dependent manner were separated into cytoplasmic and membrane protein fractions using a cell fractionation kit (Cell Signaling Technology, catalog 9038) and protein concentrations quantified using a Pierce BCA assay (Thermo Fisher Scientific, catalog 23227). 4–6 μg of fractionated total protein lysate was fractionated on SDS-PAGE gel using Peggy Sue (Protein Simple). The resulting area under the curve was normalized against β-actin.
(§2) (A) Western blot of PKC isoforms θ, α, β2, and β1 in cytoplasmic and membrane fractions of CD4^+ T cells treated with C-232A. […] Area under the peak generated by western blot analysis of membrane-associated PKC isoforms after treatment and plotted using GraphPad software. AUC plots were used to generate EC50 values (D). (PNG)

[2] = system: classical isoforms PKC-α, PKC-β1, PKC-β2; assay: as above; assay type: cell-based; details: 1 hour
Experimental: as §1, §2

[3] = system: plasma cytokines/chemokines; assay: Cytokine/chemokine analysis in plasma; assay type: in vivo, rhesus macaque; details: 4 hours post dose
Excerpt: For plasma cytokine analysis (S1 Table), whole blood was collected into K2EDTA tubes from C-232A and vehicle dosed rhesus macaques (prebleed and various post-dose time points) and plasma was isolated and stored at −80^ºC. Cytokine/chemokine analysis in plasma samples was accomplished using a nonhuman primate-specific 37 Plex ProcartaPlex immunoassay system (Thermo Fisher Scientific) according to the manufacturer’s instructions. Samples were then read on a Luminex 200 (Luminex) platform and analyzed using Bio-plex Manager software (Bio-Rad).

PKC-α = PKC-α (Homo sapiens, UniProt P17252); assay: PKC isoform translocation in A549-tGFP cells; assay type: cell-based; parameters: host or cells: A549; details: A549-tGFP cells, 60 minutes; read-out: EC50 for PKC-α translocation
Experimental: A description of this effort is reported elsewhere.
Cellular translocation of PKC isoforms upon activation was determined in 8 A549 cell lines, each expressing a single PKC isoform fused to tGFP (PhenoVista Biosciences). Cells were plated in 384-well plates (80 μL/well) at 10^5 cells/mL in RPMI with 10% FBS and rested overnight. PKC agonist(s) were serially diluted at 1:3 steps in DMSO and added to the cells. After 60 minutes in an incubator at 37 °C, 5% CO2, cells were stained with Hoechst-33342 and fixed with 2% paraformaldehyde for 30 minutes at 4 °C. Cells were then stained with wheat germ agglutinin conjugated to AlexaFluor647 (WGA-647) for 10 minutes at 4 °C, washed to remove excess dye and imaged with Cellomics Array Scan (Thermo Fisher) at room temperature (RT). Images were analyzed using Cellomics automated image analysis algorithm. Plasma membrane translocation was quantified using the ratio between the average fluorescence in the areas at the cell edge defined by WGA-647 and the cytoplasm region.

With Cc1ccc(C#Cc2ccc(C(=O)OCC3(CO)Cc4c(-c5ccccc5)ccnc4O3)cc2)cc1 (stereo not shown) [C-233] the “HIV protein production (supernatant p24 and cellular p24 by HIV-Flow)” value [1] was “activated production of viral protein”.

For Cc1ccc(C#Cc2ccc3oc(CC(C)(C)C(=O)OCC4(CO)CC(=CCC(CC(C)C)CC(C)C)C(=O)O4)cc3c2)cc1 (stereo not shown) [C-232A], the “translocation of PKC-θ from cytoplasm to cell membrane” value (PKC-θ) was “translocated PKC-θ from the cytoplasm to the cell membrane in a dose-dependent manner”, the “translocation of classical isoforms α, β1, β2” value [2] was “did not translocate classical isoforms α, β1, or β2” and the I-TAC in plasma ([3]; 0.03 mg/kg) was 88 pg/mL. The IFN-α in plasma ([3]; 0.03 mg/kg) was 90 pg/mL, the IFN-γ in plasma ([3]; 0.03 mg/kg) was 43 pg/mL and the IL-1RA in plasma ([3]; 0.03 mg/kg) was 169 pg/mL. The IL-1β in plasma ([3]; 0.03 mg/kg) was 45 pg/mL, the IL-6 in plasma ([3]; 0.03 mg/kg) was 43 pg/mL and the IL-8 in plasma ([3]; 0.03 mg/kg) was 275 pg/mL. The IL-10 in plasma ([3]; 0.03 mg/kg) was 42 pg/mL, the IL-18 in plasma ([3]; 0.03 mg/kg) was 114 pg/mL and the MCP-1 in plasma ([3]; 0.03 mg/kg) was 1900 pg/mL. It also gave an MIG in plasma ([3]; 0.03 mg/kg) of 55 pg/mL, an MIP-1α in plasma ([3]; 0.03 mg/kg) of 208 pg/mL and an MIP-1β in plasma ([3]; 0.03 mg/kg) of 131 pg/mL. It also gave a TNF-α in plasma ([3]; 0.03 mg/kg) of 56 pg/mL, a VEGF-A in plasma ([3]; 0.03 mg/kg) of 107 pg/mL and an I-TAC in plasma ([3]; 0.1 mg/kg) of 427 pg/mL. For the same compound, the IFN-α in plasma ([3]; 0.1 mg/kg) was 143 pg/mL, the IFN-γ in plasma ([3]; 0.1 mg/kg) was 75 pg/mL and the IL-1RA in plasma ([3]; 0.1 mg/kg) was 775 pg/mL. The IL-1β in plasma ([3]; 0.1 mg/kg) was 70 pg/mL, the IL-6 in plasma ([3]; 0.1 mg/kg) was 126 pg/mL and the IL-8 in plasma ([3]; 0.1 mg/kg) was 2531 pg/mL. For the same compound, the IL-10 in plasma ([3]; 0.1 mg/kg) was 80 pg/mL, the IL-18 in plasma ([3]; 0.1 mg/kg) was 193 pg/mL and the MCP-1 in plasma ([3]; 0.1 mg/kg) was 3250 pg/mL. For the same compound, the MIG in plasma ([3]; 0.1 mg/kg) was 64 pg/mL, the MIP-1α in plasma ([3]; 0.1 mg/kg) was 160 pg/mL and the MIP-1β in plasma ([3]; 0.1 mg/kg) was 428 pg/mL. It also gave a TNF-α in plasma ([3]; 0.1 mg/kg) of 39 pg/mL, a VEGF-A in plasma ([3]; 0.1 mg/kg) of 161 pg/mL and an I-TAC in plasma ([3]; 0.3 mg/kg) of 365 pg/mL. The IFN-α in plasma ([3]; 0.3 mg/kg) was 112 pg/mL, the IFN-γ in plasma ([3]; 0.3 mg/kg) was 53 pg/mL and the IL-1RA in plasma ([3]; 0.3 mg/kg) was 2265 pg/mL. For the same compound, the IL-1β in plasma ([3]; 0.3 mg/kg) was 59 pg/mL, the IL-6 in plasma ([3]; 0.3 mg/kg) was 76 pg/mL and the IL-8 in plasma ([3]; 0.3 mg/kg) was 375 pg/mL. For the same compound, the IL-10 in plasma ([3]; 0.3 mg/kg) was 54 pg/mL, the IL-18 in plasma ([3]; 0.3 mg/kg) was 145 pg/mL and the MCP-1 in plasma ([3]; 0.3 mg/kg) was 6117 pg/mL. The MIG in plasma ([3]; 0.3 mg/kg) was 55 pg/mL, the MIP-1α in plasma ([3]; 0.3 mg/kg) was 187 pg/mL and the MIP-1β in plasma ([3]; 0.3 mg/kg) was 707 pg/mL. For the same compound, the TNF-α in plasma ([3]; 0.3 mg/kg) was 19 pg/mL, the VEGF-A in plasma ([3]; 0.3 mg/kg) was 81 pg/mL and the I-TAC in plasma ([3]; 1 mg/kg) was 5602 pg/mL. It also gave an IFN-α in plasma ([3]; 1 mg/kg) of 187 pg/mL, an IFN-γ in plasma ([3]; 1 mg/kg) of 200 pg/mL and an IL-1RA in plasma ([3]; 1 mg/kg) of 4471 pg/mL. For the same compound, the IL-1β in plasma ([3]; 1 mg/kg) was 343 pg/mL, the IL-6 in plasma ([3]; 1 mg/kg) was 3872 pg/mL and the IL-8 in plasma ([3]; 1 mg/kg) was 6153 pg/mL. For the same compound, the IL-10 in plasma ([3]; 1 mg/kg) was 82 pg/mL, the IL-18 in plasma ([3]; 1 mg/kg) was 351 pg/mL and the MCP-1 in plasma ([3]; 1 mg/kg) was 13,620 pg/mL. The MIG in plasma ([3]; 1 mg/kg) was 658 pg/mL, the MIP-1α in plasma ([3]; 1 mg/kg) was 1111 pg/mL and the MIP-1β in plasma ([3]; 1 mg/kg) was 3913 pg/mL. The TNF-α in plasma ([3]; 1 mg/kg) was 28 pg/mL, the VEGF-A in plasma ([3]; 1 mg/kg) was 330 pg/mL and the EC50 (PKC-α) was greater than 39.5 µM.
